Laboratory results from patent US12286452B2, “Amphiphilic aminoglycoside connexin hemichannel inhibitors” (Texas Tech University System, priority 2018, dated 2025).
Read-outs that look alike come from different tables or passages of the source.

Assays:
human Cx26 HCs = target: T1, human Cx26 HCs (Homo sapiens, UniProt P29033); test: Cx26-dependent growth complementation assay in E. coli LB2003; assay type: cell-based
T1 construct: expressed in transfected cells; host or cells: E. coli LB2003 (carrying pREP4), transformed with pQE-Cx26, IPTG-induced
Experimental: These derivatives were prepared by sequential benzylation and methylation followed by reduction of azido groups or hydrogenolysis of the Bn. […] Connexin HC inhibition was conducted using a bacteria-based assay of HC function^39. In this assay, Cx26 HCs are expressed in E. coli LB2003 cells, which lack three major K^+ uptake systems (Kdp, Kup and Trk), and as a result they cannot grow in low-[K^+] media^39-41. However, growth of this E. coli strain in low-[K^+] medium can be rescued by expression of K^+-permeable channels such as connexin HCs^39, 42-43. Under the conditions of the assay (LB2003 cells expressing HCs and grown in low-K^+ medium), inhibition of the HCs reduces or abolishes growth^39, 42-43. This is a simple assay where bacterial growth in multi-well plates can be followed by measuring the absorbance at 600 nm (OD600)^29.
LB2003 cells generously provided by Dr. E. P. Bakker (Osnabruk University, Osnabruk, Germany) were transformed with the plasmid pQE-Cx26 (human Cx26 into pQE60) and pREP4. […] LB2003 cells cannot grow in low-[K^+] media because of insufficient K^+ uptake for growth due to the knockout of three key K^+ transporters (Atrk, Akup, Akdp strain)^2-4. Details and validation of the growth complementation assay have been published recently^2. In brief, competent LB2003 containing the pREP4 plasmid were transformed with pQE-Cx26. These cells were grown overnight in Luria-Bertani medium (BD, Franklin Lakes, NJ, USA) supplemented with 100 mM KCl (to allow growth) and 0.4 mg/mL ampicillin, and then washed four times with NLM (see below), to remove residual K^+ from the Luria-Bertani medium. The washed cells were resuspended in complementation growth medium to an OD600 of 0.2. NLM contained 46 mM Na2HPO4, 23 mM NaH2PO4, 8 mM (NH4)2SO4, 0.4 mM MgSO4, 0.012 mM FeSO4, 1 mM sodium citrate, 44 mM glucose and 0.006 mM thiamine hydrochloride, pH 7.0. KLM had the same composition that NLM except for the equimolar replacement of Na^+ with K^+. For growth complementation we used NLM+4 mM KCl, and Cx26 expression was induced with 0.5 mM IPTG at the time of dilution to OD600=0.2. For the assay, the cells were seeded in 96-well plates and were incubated at 30° C., with shaking at 500 rpm. OD600 was measured after 18-h incubation in a plate reader. The initial OD600=0.2 was subtracted for growth calculations. Data are presented as means±SEM. Statistically significant differences were calculated by the Student t-test for unpaired data. Data were obtained from at least 3 independent experiments, with 3 repeats per experiment.

Cx43 HCs = target: T2, Cx43 HCs (Homo sapiens, UniProt P17302); test: Cx43-dependent growth complementation assay in E. coli LB2003; assay type: cell-based; conditions: for Cx43/Cx26 Selectivity: IC50 Cx26/IC50 Cx43
T2 construct: expressed in transfected cells
T2 sequence (P17302 whole entry): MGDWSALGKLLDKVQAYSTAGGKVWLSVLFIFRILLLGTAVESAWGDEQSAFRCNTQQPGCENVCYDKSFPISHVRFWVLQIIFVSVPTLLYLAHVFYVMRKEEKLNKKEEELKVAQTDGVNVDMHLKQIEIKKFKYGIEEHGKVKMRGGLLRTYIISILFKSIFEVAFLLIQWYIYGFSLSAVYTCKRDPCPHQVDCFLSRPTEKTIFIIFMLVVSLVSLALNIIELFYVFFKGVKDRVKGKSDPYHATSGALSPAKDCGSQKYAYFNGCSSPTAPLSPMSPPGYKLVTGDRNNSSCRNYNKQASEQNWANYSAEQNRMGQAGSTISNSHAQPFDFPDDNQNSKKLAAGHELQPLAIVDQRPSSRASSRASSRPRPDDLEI

[1] = 4″,6″-disubstituted AKs, Table 5, read-out: Cx26 IC50
[2] = K46 members, the 20th table, read-out: IC50 (μM) against Cx26
[3] = first Table 2, read-out: IC50, inhibition of Cx26 by synthetic AGs
[4] = 4″,6″-disubstituted AKs, Table 5, read-out: Cx43 IC50
[5] = K46 members, the 20th table, read-out: IC50 (μM) against Cx43
[6] = the 12th table, Hill fit, mean ± SEM, some n = 1, read-out: Cx43 IC50
[7] = K members, the 21st table, read-out: Cx43 % inhibition
[8] = Table 3, read-out: Cx243% inhibition
[9] = Table 6, read-out: Cx43 (% inhibition)

Row | inhibition at 15 µM (human Cx26 HCs; Table 3) | inhibition at 50 µM (human Cx26 HCs; Table 3) | inhibition at 15 µM (Cx43 HCs; [7]) | inhibition at 15 µM (Cx43 HCs; [8]) | inhibition at 50 µM (Cx43 HCs; [7]) | inhibition at 50 µM (Cx43 HCs; [8]) | inhibition at 15 µM (human Cx26 HCs; Table 6) | inhibition at 50 µM (human Cx26 HCs; Table 6) | inhibition at 15 µM (Cx43 HCs; [9]) | inhibition at 50 µM (Cx43 HCs; [9]) | Structure (SMILES) | IC50 (human Cx26 HCs; [3]) | IC50 (Cx43 HCs; [4]) | Cx43/Cx26 Selectivity (Cx43 HCs; Table 5) | IC50 (Cx43 HCs; [6]) | other results
1 | 26.8 ± 1.7% | 49.2 ± 5.5% | 38.1 ± 2.8% | 38.1 ± 2.8% | 51 ± 8.8% | 51 ± 8.8% | – | – | – | – | Cc1ccc(S(=O)(=O)OC[C@H]2OC(OC3C(N)CC(N)C(O[C@H]4OC(CN)[C@@H](O)C(O)C4O)[C@@H]3O)[C@H](O)C(N)C2O)cc1 (some centres unmarked) [Compound K19] | – | – | – | – | –
2 | – | – | 8.9% | – | 89.4% | – | – | – | – | – | NCC1O[C@H](O[C@@H]2C(N)C[C@@H](N)C(O[C@H]3OC(COc4ccc(-c5nc6ccccc6[nH]5)cc4)[C@@H](O)C(N)C3O)C2O)C(O)C(O)[C@@H]1O (some centres unmarked) [Compound K30] | – | – | – | 8.9 µM | –
3 | 14.6 ± 4.3% | 69.4 ± 4.2% | 36 ± 3.9% | 36 ± 3.9% | 46.7 ± 7.8% | 46.7 ± 7.8% | 14.6 ± 4.3% | 69.4 ± 4.2% | 36 ± 3.9% | 46.7 ± 7.8% | NCC1O[C@H](OC2C(N)CC(N)C(OC3O[C@H](COc4ccccc4)C(O)C(N)[C@H]3O)[C@H]2O)C(O)C(O)[C@@H]1O (some centres unmarked) [Compound K34] | – | – | – | – | –
4 | 35.9 ± 2.9% | 62.6 ± 9.2% | 36.5 ± 0.6% | 36.5 ± 0.6% | 49.3 ± 2.2% | 49.3 ± 2.2% | 35.9 ± 2.9% | 62.6 ± 9.2% | 36.5 ± 0.6% | 49.3 ± 2.2% | NCC1O[C@H](OC2C(N)CC(N)C(OC3O[C@H](COc4ccc([N+](=O)[O-])cc4)C(O)C(N)[C@H]3O)[C@H]2O)C(O)C(O)[C@@H]1O (some centres unmarked) [Compound K36] | – | – | – | – | –
5 | 37.1 ± 13.5% | 81 ± 1.7% | 45.3 ± 2.7% | 45.3 ± 2.7% | 55.1 ± 5.8% | 55.1 ± 5.8% | – | – | – | – | NCC1O[C@H](OC2C(N)CC(N)C(OC3O[C@H](CNC(=O)c4ccccc4-c4c5ccc(=O)cc-5oc5cc(O)ccc45)C(O)C(N)[C@H]3O)[C@H]2O)C(O)C(O)[C@@H]1O (some centres unmarked) [Compound K40] | – | – | – | – | –
6 | 15.9 ± 4.2% | 36.5 ± 4.7% | 20 ± 7.4% | 20 ± 7.4% | 34.8 ± 7.8% | 34.8 ± 7.8% | 15.9 ± 4.2% | 36.5 ± 4.7% | 20 ± 7.4% | 34.8 ± 7.8% | COc1ccc(OC[C@H]2OC(OC3C(N)CC(N)C(O[C@H]4OC(CN)[C@@H](O)C(O)C4O)[C@@H]3O)[C@H](O)C(N)C2O)cc1 (some centres unmarked) [Compound K81] | – | – | – | – | –

The remaining lines, values behind:

Row | Structure (SMILES) | inhibition at 15 µM (human Cx26 HCs; Table 3) | inhibition at 50 µM (human Cx26 HCs; Table 3) | inhibition at 15 µM (Cx43 HCs; [7]) | inhibition at 15 µM (Cx43 HCs; [8]) | inhibition at 50 µM (Cx43 HCs; [7]) | inhibition at 50 µM (Cx43 HCs; [8]) | inhibition at 15 µM (human Cx26 HCs; Table 6) | inhibition at 50 µM (human Cx26 HCs; Table 6) | inhibition at 15 µM (Cx43 HCs; [9]) | inhibition at 50 µM (Cx43 HCs; [9]) | IC50 (human Cx26 HCs; [3]) | IC50 (Cx43 HCs; [4]) | Cx43/Cx26 Selectivity (Cx43 HCs; Table 5) | IC50 (Cx43 HCs; [6]) | other results
7 | NCC1OC(OC2C(N)CC(N)C(OC3OC(COCc4ccc(Cl)cc4)C(OCc4ccc(Cl)cc4)C(N)C3O)C2O)C(O)C(O)C1O (centres unmarked) [Compound 12, 4″,6″-Di-O-(4-chlorobenzyl) kanamycin] | – | – | – | – | – | – | – | – | – | – | 2.5 ± 0.6 µM | 17.1 ± 1.7 µM | 0.15 | 20.3 µM | IC50 (human Cx26 HCs; [1]): 2.5 ± 0.6 µM; IC50 (human Cx26 HCs; [2]): 2.5 ± 0.6 µM; IC50 (Cx43 HCs; [5]): 20.3 µM; Cx43 Imax (maximal inhibition) (Cx43 HCs; the 12th table, Hill fit): 133%
8 | NC[C@H]1O[C@H](O[C@H]2[C@H](O)[C@@H](O[C@@H]3O[C@H](COCc4ccc(F)cc4)[C@@H](OCc4ccc(F)cc4)[C@H](N)[C@H]3O)[C@H](N)C[C@@H]2N)[C@H](O)[C@@H](O)[C@@H]1O [Compound 13, 4″,6″-Di-O-(4-flurobenzyl) kanamycin] | – | – | – | – | – | – | – | – | – | – | 8.1 ± 0.5 µM | 26.6 ± 7.8 µM | 0.30 | 26.6 ± 7.8 µM | IC50 (human Cx26 HCs; [1]): 8.1 ± 0.5 µM; IC50 (human Cx26 HCs; [2]): 8.1 ± 0.5 µM; IC50 (Cx43 HCs; [5]): 26.6 ± 7.8 µM; Cx43 Imax (maximal inhibition) (Cx43 HCs; the 12th table, Hill fit): 110 ± 33%
9 | NCC1OC(OC2C(N)CC(N)C(OC3OC(COCc4ccc5ccccc5c4)C(OCc4ccc5ccccc5c4)C(N)C3O)C2O)C(O)C(O)C1O (centres unmarked) [Compound 14, 4″,6″-Di-O-(2-naphthalenmethyl) kanamycin] | – | – | – | – | – | – | – | – | – | – | 4.9 ± 0.2 µM | 6.2 ± 4.4 µM | 1.07 | – | –
10 | NC[C@@H]1O[C@H](O[C@H]2[C@@H](O)[C@H](O[C@@H]3[C@@H](O)[C@H](N)C[C@H](N)[C@H]3O[C@H]3O[C@H](CO)[C@@H](O)[C@H](O)[C@H]3N)O[C@@H]2CO)[C@H](N)[C@@H](O)[C@@H]1O [Paromomycin, reference compound] | – | – | – | – | – | – | – | – | – | – | – | – | – | – | Cx43/Cx26 Selectivity (Cx43 HCs; the 16th table): 0.21
